We go through 14 compounds from patent US20240270724A1, “GALECTIN-3 INHIBITING C-GLYCOSIDES” (GLYCOMIMETICS, INC., priority 2021, published 2024).

Molecules are shown by their SMILES.

In one experiment the target is T1, galectin-3 (Homo sapiens, UniProt P17931).
T1 construct: purchased IBL IBATGP0414
In words: Galectin-3 activity ELISA assay: inhibition of galectin-3 binding to immobilized Galβ1-3GlcNAc polymer. Particulars: inhibition of galectin-3 binding to Galβ1-3GlcNAc polymer, average (± standard deviation) where assayed more than once. The text has this:
An inhibition assay may be used to screen for antagonists of galectin-3. For example, an assay may be performed to characterize the capability of a compound described herein to inhibit interaction of galectin-3 with a Galβ1-3GlcNAc carbohydrate structure. The inhibition assay may be a competitive binding assay, which allows the determination of IC50 values. By way of example, a Galβ1-3GlcNAc polymer may be immobilized onto a matrix; a composition may be added to reduce nonspecific binding; the immobilized Galβ1-3GlcNAc polymer may be contacted with the candidate compound in the presence of galectin-3 group under conditions and for a time sufficient to permit galectin-3 to bind to the immobilized Galβ1-3GlcNAc polymer; the immobilized Galβ1-3GlcNAc polymer may be washed; and the amount of galectin-3 bound to the immobilized Galβ1-3GlcNAc polymer may be detected. Variations of such steps can be readily and routinely accomplished by a person of ordinary skill in the art.
Galectin-3 antagonists were evaluated for their ability to inhibit binding of galectin-3 to a Galβ1-3GlcNAc carbohydrate structure. The detailed protocol was as follows. A 1 μg/mL suspension of a Galβ1-3GlcNAcβ1-3Galβ1-4GlcNAcβ-PAA-biotin polymer (Glycotech, catalog number 01-096) was prepared. A 100 μL aliquot of the polymer was added to the wells of a 96-well streptavidin-coated plate (R&D Systems, catalog number CP004). A 100 μL aliquot of 1× Tris Buffered Saline (TBS, Sigma, catalog number T5912-10X) was added to control wells. The polymer was allowed to bind to the streptavidin-coated wells for 1.5 hours at room temperature. The contents of the wells were discarded, and 200 μL of 1×TBS containing 1% bovine serum albumin (BSA) was added to each well as a blocking reagent and the plate was kept at room temperature for 30 minutes. The wells were washed three times with 1×TBS containing 0.1% BSA. A serial dilution of test compounds was prepared in a separate V-bottom plate (Corning, catalog number 3897). A 75 μL aliquot of the highest concentration of the compound to be tested was added to the first well in a column of the V-bottom plate, then 15 μL were serially transferred into 60 μL 1×TBS through the remaining wells in the column to generate a 1 to 5 serial dilution. A 60 μL aliquot of 2 μg/mL galectin-3 (IBL, catalog number IBATGP0414) was added to each well in the V-bottom plate. A 100 μL aliquot of the galectin-3 test compound mixture was transferred from the V-bottom plate into the assay plate containing the Galβ1-3GlcNAc polymer. Four sets of control wells in the assay plate were prepared in duplicate containing 1) both Galβ1-3GlcNAc polymer and galectin-3, 2) neither the polymer nor galectin-3, 3) galectin-3 only, no polymer, or 4) polymer only, no galectin-3. The plate was gently rocked for 1.5 hours at room temperature. The wells were washed four times with TBS/0.1% BSA. A 100 μL aliquot of anti-galectin-3 antibody conjugated to horse radish peroxidase (R&D Systems, from DGAL30 kit) was added to each well, and the plate was kept at room temperature for 1 hour. The wells were washed four times with TBS/0.1% BSA. A 100 μL aliquot of TMB substrate solution was added to each well. The TMB substrate solution was prepared by making a 1:1 mixture of TMB Peroxidase Substrate (KPL, catalog number 5120-0048) and Peroxidase Substrate Solution B (KPL, catalog number 5120-0037). The plate was kept at room temperature for 10 to 20 minutes. The color development was stopped by adding 100 uL 10% phosphoric acid (RICCA Chemical Co., catalog number 5850-16). The absorbance at 450 nm (A450) was measured using a FlexStation 3 plate reader (Molecular Devices). Plots of A450 versus test compound concentration and IC50 determinations were made using GraphPad Prism 6. The number of assays run (n) for each compound is recorded in the following table.
Background: An ELISA detects its analyte on a solid surface through an enzyme-linked reagent.

In experiment [1] the target is T2, carbohydrate recognition domain of human galectin-3 (Galectin-3-CRD) (Homo sapiens, UniProt P17931).
T2 construct: The carbohydrate recognition domain of human galectin-3 (Servesto Galectin-3-CRD) was diluted; purchased Servesto
Kind of experiment: Galectin-3 activity microscale thermophoresis assay. Format: binding. Particulars: label-free MST, 20 nM galectin-3-CRD; average of all assays (± standard deviation), each assay in triplicate. Here is the method: The carbohydrate recognition domain of human galectin-3 (Servesto Galectin-3-CRD) was diluted with PBS+0.1% F127 to 40 nM. Separately, a 40 uM stock of Compound 45 in DMSO was diluted down to 4 uM in PBS+0.1% F127 and serially diluted in sixteen steps using a dilution factor of 1 to 2 in 10% DMSO+PBS+0.1% F127. To each sample in the serial dilution of Compound 45, 10 ul of 40 nM Galectin-3-CRD was added, yielding final concentrations of 20 nM galectin-3-CRD and 5% DMSO+PBS+0.1% F127. NT.LabelFree Zero background Standard Treated Capillaries were filled with the prepared solutions then loaded into the Monolith NT Label-Free MST instrument. The reaction was measured with 100% excitation power of LED and medium (40%) MST power. Binding curves and Kd values were generated using MO affinity analysis. Each assay was run in triplicate. Some compounds were subjected to more than one assay run in triplicate.
On the technique in general: In MST a laser heats a spot of the sample, and binding alters the fluorescence response.

T2 sequence (P17931 118-248 limits assumed): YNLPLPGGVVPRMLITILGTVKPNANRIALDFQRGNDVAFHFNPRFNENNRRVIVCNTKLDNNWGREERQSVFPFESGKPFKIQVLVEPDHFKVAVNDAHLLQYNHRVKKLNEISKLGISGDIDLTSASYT
T1 sequence (P17931 whole entry): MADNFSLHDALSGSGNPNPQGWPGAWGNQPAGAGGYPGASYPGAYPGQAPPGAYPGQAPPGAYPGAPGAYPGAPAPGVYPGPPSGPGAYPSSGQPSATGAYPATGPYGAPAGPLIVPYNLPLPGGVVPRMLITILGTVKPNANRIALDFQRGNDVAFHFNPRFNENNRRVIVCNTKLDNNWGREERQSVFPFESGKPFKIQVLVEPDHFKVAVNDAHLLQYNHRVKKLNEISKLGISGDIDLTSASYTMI

`COC1C(n2cc(-c3cc(F)c(F)c(F)c3)nn2)[C@@H](O)C(CO)O[C@H]1[C@H](OCc1ccc(Br)cc1)C(=O)N[C@@H](C)CF` (stereo partly shown) [Compound 71]: the half-maximal inhibitory concentration (IC50) – broadly, the concentration that inhibits the measured activity by half – on galectin-3 is 526 nM. Further, in experiment [1], binding was put at a Kd of 9 nM.
The compound `COC1C(n2cc(-c3cc(F)c(F)c(F)c3)nn2)[C@@H](O)C(CO)O[C@H]1[C@H](OCc1ccc(Br)cc1)C(=O)NC(CF)CF` (stereo partly shown) [Compound 72] registered an IC50 on galectin-3 of 197 nM. The affinity in experiment [1], expressed as Kd, was 9 nM.
`COC1C(n2cc(-c3cc(F)c(F)c(F)c3)nn2)[C@@H](O)C(CO)O[C@H]1[C@H](OCc1ccc(Br)cc1)C(=O)N[C@@H](C)C(F)(F)F` (stereo partly shown) [Compound 73]: on galectin-3, the 50% inhibitory concentration (IC50) was 182 nM. Further, in experiment [1], the dissociation constant (Kd) (usually the constant that tells how readily two partners part at equilibrium) stood at 8 nM.
Consider `[2H]C([2H])([2H])OC1C(n2cc(-c3cc(F)c(F)c(F)c3)nn2)[C@@H](O)C(CO)O[C@H]1[C@H](OCc1ccc(Br)cc1)C(=O)NC(C)(C)CO` (stereo partly shown) [Compound 74], for which the IC50 at galectin-3 came to 216 nM. The compound further returned a Kd in experiment [1] of 20 nM.
Taken in the same sequence, the figures for `[2H]C([2H])([2H])OC1C(n2cc(-c3cc(F)c(F)c(F)c3)nn2)[C@@H](O)C(CO)O[C@H]1[C@H](OCc1ccc(Br)cc1)C(=O)NC1(CO)CC1` (stereo partly shown) [Compound 75] were 938 nM and 21 nM.
Consider `COC1C(n2cc(-c3cc(F)c(F)c(F)c3)nn2)[C@@H](O)C(CO)O[C@H]1[C@H](OCc1ccc(Br)cc1)C(=O)O` (stereo partly shown) [Compound 76], for which the IC50 on galectin-3 is 470 nM. Besides, in experiment [1], the Kd worked out at 31 nM.
On galectin-3, `COC1C(n2cc(-c3cc(F)c(F)c(F)c3)nn2)[C@@H](O)C(CO)O[C@H]1[C@H](OCc1ccc(Cl)cc1)C(=O)N(C)C` (stereo partly shown) [Compound 83, reference compound] gave a concentration for half-maximal inhibition (IC50) of 2910 nM. Also, the Kd in experiment [1] came to 570 nM.
`CNC(=O)[C@@H](OCc1ccc(Cl)cc1)[C@@H]1OC(CO)[C@H](O)C(n2cc(-c3cc(F)c(F)c(F)c3)nn2)C1OC` (stereo partly shown) [Compound 84, reference compound] returned a half-inhibitory concentration (IC50) at galectin-3 of 386 nM. For the same compound, binding in experiment [1] was put at a Kd of 18 nM.
With `COCCCNC(=O)[C@@H](OCc1ccc(Cl)cc1)[C@@H]1OC(CO)[C@H](O)C(n2cc(-c3cc(F)c(F)c(F)c3)nn2)C1OC` (stereo partly shown) [Compound 85, reference compound], the IC50 on galectin-3 is 397 nM. In experiment [1], this compound showed a Kd of 12 nM.
`CC(C)OC(=O)[C@@H](OCc1ccc(Cl)cc1)[C@@H]1OC(CO)[C@H](O)C(n2cc(-c3cc(F)c(F)c(F)c3)nn2)C1O` (stereo partly shown) [Compound 86, reference compound]: the IC50 on galectin-3 worked out at 184 nM. In addition, the Kd in experiment [1] turned out to be 0.4 nM.
On to `COC1C(n2cc(-c3cc(F)c(F)c(F)c3)nn2)[C@@H](O)C(CO)O[C@H]1[C@H](OCc1ccc(Cl)cc1)C(=O)OC(C)C` (stereo partly shown) [Compound 87, reference compound], for which the IC50 on galectin-3 amounted to 724 nM. The Kd in experiment [1] was found to be 20 nM.
Take `[2H]C([2H])([2H])OC1C(n2cc(-c3cc(F)c(F)c(F)c3)nn2)[C@@H](O)C(CO)O[C@H]1[C@H](OCc1ccc(Cl)cc1)C(=O)NC(C)C` (stereo partly shown) [Compound 88, reference compound]: the half-maximal inhibitory concentration (IC50) at galectin-3 amounted to 416 nM. In addition, binding in experiment [1] was put at a Kd of 67 nM.
For `COC1C(n2cc(-c3cc(F)c(F)c(F)c3)nn2)[C@@H](O)C(CO)O[C@H]1[C@H](OCc1ccc(Cl)cc1)C(=O)NC(C)C` (stereo partly shown) [Compound 89, reference compound], the concentration for half-maximal inhibition (IC50) at galectin-3 is 427 nM. Moreover, binding in experiment [1] was put at a Kd of 70 nM.
The matching figures for `[2H]C([2H])([2H])OC1C(n2cc(-c3cc(F)c(F)c(F)c3)nn2)[C@@H](O)C(CO)O[C@H]1[C@H](OCc1ccc(Cl)c(F)c1)C(=O)NC(C)C` (stereo partly shown) [Compound 90, reference compound]: 1190 nM and 25 nM.
